Reference: patent publication US11225481B2 (Centre national de la recherche scientifique, priority 2015, dated 2022)
Several values for one entry are separate records, joined by “and”; a condition that tells them apart may be missing. Equal entries are not always repeated.

What was measured:
Format in all cases: binding
BRD4(BD1) [1] = molecular target: T1, BRD4(BD1) (Homo sapiens, UniProt O60885); assay: HTRF assay on robot-synthesised focused library (Example 4 bis); details: Table 2 bis; focused library without intermediary purification; read-out: HTRF (IC50, μM), effect on BRD4(BD1) activity
T1 construct: a BRD4(BD1) synthetic gene that includes a TEV cleavage site was purchased from LifeTechnology; made in house
Protocol: (§1) The Accelerator Synthetizer SLT100 allows the efficient synthesis of the focused library in 96 well plates that can be directly transferred to a Labcyte Access/Echo® Laboratory Workstation to assess the compounds for their ability to disrupt bromodmain/histone complexes using the homogeneous time-resolved fluorescence (HTRF®) technology (IC50 μM).
as §1, with “After” for “The Accelerator Synthetizer SLT100 allows”, “with the Accelerator Synthetizer SLT100, the focused library has been” for “that can be”, “μM, table 2bis).” for “μM).”

BET bromodomains = assay: Selectivity profile across BET bromodomains (HTRF); details: in words
Protocol: Selectivity profiles of bromodomain inhibitors were performed as described in HTRF screen section. […] HTRF detection reagents (EPIgeneous™ Binding Domain kits) were purchased from Cisbio Bioassays and used according to supplier's protocol. GST tagged bromodomain proteins were purchased from BPS Bioscience and histone peptide from Anaspec.

BRD4(BD1) [2] = molecular target: T1, BRD4(BD1); assay: HTRF assay, disruption of bromodomain/histone peptide interaction
Protocol: HTRF assays were performed in white 384 Well Small Volume™ HiBase Polystyrene Microplates (Greiner) with a total working volume of 20 μL. Compounds were dispensed, with 200 nL per well (1% final DMSO), from a concentration stock of 1 mM in 100% DMSO and with serial DMSO dilutions, using a Mosquito Crystal pipetting robot platform (TTP labtech). The IC50 measurements were performed in triplicates (Table 2 and 3). All HTRF reagents were purchased from CisBio Bioassays and reconstituted according to the supplier protocols. For each assay 14.7 μL of mix 1 (protein+peptide) is added in the assay wells, containing previously dispensed inhibitors, according to the final concentration and buffer described in Table 4, using a Biomek NX MC pipetting robot (Beckman). Then, 5.1 μL of mix 2 (donnor+acceptor) is added. HTRF signals were measured, after a final incubation (overnight at room temperature), using a PHERAstar FS (BMG Labtech) with an excitation filter at 337 nm and fluorescence wavelength measurement at 620 and 665 nm, an integration delay of 60 μs and an integration time of 500 μs. Results were analyzed with a two-wavelengths signal ratio: [intensity (665 nm)/intensity (620 nm)]*10^4. Percentage of inhibition was calculated using the following equation: % inhibition=[(compound signal)−(min signal)]/[(max signal)−(min signal)]*100, where ‘max signal’ is the signal ratio with the compound vehicle alone (DMSO) and ‘min signal’ the signal ratio without peptide.
For Isothermal Titration Calorimetry (ITC) and crystallogenesis, BRD4(BD1) was produced and purified using a histidine tag affinity chromatography as described by Filipakopoulos et al.9 For these experiments, a pNIC28-BSA4 expression vector containing BRD4(BD1) and a Tobacco Etch Virus (TEV) protease cleavage site have kindly been provided by Stefan Knapp laboratory from the SGC at the University of Oxford. After size exclusion chromatography, the fractions presenting pure BRD4(BD1) after TEV cleavage of the histidine tag were pooled and concentrated to 25 mg/mL for crystallogenesis. For ITC assays, the protein was concentrated up to at 6 mg/mL and the DTT was removed using a buffer exchange column (PD10 from GE healthcare) equilibrated with 10 mM HEPES pH=7.5, 150 mM NaCl. For Homogeneous Time Resolved Fluorimetry (HTRF) experiments, a BRD4(BD1) synthetic gene that includes a TEV cleavage site was purchased from LifeTechnology in a pDONR transport vector before cloning into a pDESTTM15 expression vector for GST affinity purification. Protein production and purification was carried out using similar protocols and buffers as used for the His-BRD4(BD1) system. Purification was carried on GST affinity resin (Thermo Scientific) and reduced glutathione was used for protein release. GST-BRD4(BD1) was further purified by size exclusion chromatography on a Superdex 16/60 Hiload column (GE Healthcare) using 20 mM TRIS pH=8.0, 150 mM NaCl Buffer.

## CCn1c(CSc2nc3cc(S(=O)(=O)N4CCOCC4)ccc3o2)nc2c1c(=O)[nH]c(=O)n2Cc1ccc(Cl)cc1 [Compound 62]
BRD4(BD1) [1]
  IC50: 8.9 µM

## CCn1c(COc2ccc(-n3[nH]c(C(=O)O)cc3=O)nn2)nc2c1c(=O)[nH]c(=O)n2Cc1ccc(Cl)cc1 [Compound 69]
BRD4(BD1) [1]
  IC50: 8.4 µM

## CCn1c(CSc2nc3cc([N+](=O)[O-])ccc3o2)nc2c1c(=O)[nH]c(=O)n2Cc1ccc(Cl)cc1 [Compound 60]
BRD4(BD1) [1]
  IC50: 8.4 µM

## CCCCn1c(=O)[nH]c(=O)c2c1nc(CSc1nc3cc(C(=O)OC)ccc3o1)n2CC [Compound 38]
BRD4(BD1) [1]
  IC50: 48.2 µM

## CCCCn1c(=O)[nH]c(=O)c2c1nc(COc1ccc(-n3ncc(C(=O)O)c3CC)nn1)n2CC [Compound 44]
BRD4(BD1) [1]
  IC50: 21.9 µM

## CCn1c(CSc2nnc(Cc3cc(C)nn3C)n2CC2CCCO2)nc2c1c(=O)[nH]c(=O)n2Cc1ccc(Cl)cc1 (centres unmarked) [Compound 74]
BRD4(BD1) [1]
  IC50: 5.5 µM

## CCn1c(CSc2nc3cc(S(=O)(=O)N(C)C)ccc3o2)nc2c1c(=O)[nH]c(=O)n2Cc1ccc(Cl)cc1 [Compound 61]
BRD4(BD1) [1]
  IC50: 4.7 µM

## CCn1c(CSc2nc3ccc(C(=O)O)cc3o2)nc2c1c(=O)[nH]c(=O)n2Cc1ccc(Cl)cc1 [Compound 56]
BRD4(BD1) [1]
  IC50: 13.2 µM

## CCn1c(CSc2nc3cc(S(=O)(=O)N4CCCCC4)ccc3o2)nc2c1c(=O)[nH]c(=O)n2Cc1ccc(Cl)cc1 [Compound 58]
BRD4(BD1) [1]
  IC50: 2.7 µM

## CCCCn1c(=O)[nH]c(=O)c2c1nc(CSc1nc(O)c3c(C)cc(C)nc3n1)n2CC [Compound 53]
BRD4(BD1) [1]
  IC50: 4.4 µM

## CCn1c(COc2ccc(Nc3nc4ccccc4c(=O)[nH]3)cc2)nc2c1c(=O)[nH]c(=O)n2Cc1ccc(Cl)cc1 [Compound 76]
BRD4(BD1) [1]
  IC50: 12.7 µM

## CCn1c(CSc2nc3ncccn3n2)nc2c1c(=O)[nH]c(=O)n2Cc1ccc(Cl)cc1 [Compound 80]
BRD4(BD1) [1]
  IC50: 10.6 µM

## CCCCn1c(=O)[nH]c(=O)c2c1nc(COc1nc3cc(C(=O)O)ccc3[nH]1)n2CC [Compound 42]
BRD4(BD1) [1]
  IC50: 45.3 µM

## CCCCn1c(=O)[nH]c(=O)c2c1nc(CSc1nc3cc(C(=O)OCC)ccc3n1CC)n2CC [Compound 41]
BRD4(BD1) [1]
  IC50: 6.4 µM

## CCCCn1c(=O)[nH]c(=O)c2c1nc(COc1ccc(C3CNCC3C(=O)O)cc1)n2CC (centres unmarked) [Compound 45]
BRD4(BD1) [1]
  IC50: 11.6 µM

## CCn1c(CSc2nc3nc(C)c(Br)cc3[nH]2)nc2c1c(=O)[nH]c(=O)n2Cc1ccc(Cl)cc1 [Compound 79]
BRD4(BD1) [1]
  IC50: 4.2 µM

## CCOC(=O)c1ccc2c(c1)nc(SCc1nc3c(c(=O)[nH]c(=O)n3Cc3ccc(Cl)cc3)n1CC)n2CC [Compound 66]
BRD4(BD1) [1]
  IC50: 16.8 µM

## CCn1c(CSc2nc3cc(C(=O)O)ccc3o2)nc2c1c(=O)[nH]c(=O)n2Cc1ccc(Cl)cc1 [Compound 57]
BRD4(BD1) [1]
  IC50: 7.5 µM

## CCCCn1c(=O)[nH]c(=O)c2c1nc(CSc1nc3cc(S(=O)(=O)N4CCOCC4)ccc3[nH]1)n2CC [Compound 39]
BRD4(BD1) [1]
  IC50: 38.2 µM

## CCCCn1c(=O)[nH]c(=O)c2c1nc(CSc1nc3nc(C)ccc3o1)n2CC [Compound 54]
BRD4(BD1) [1]
  IC50: 7.1 µM

## CCn1c(COc2ccc(C3NC(C(=O)O)CS3)cc2)nc2c1c(=O)[nH]c(=O)n2Cc1ccc(Cl)cc1 (centres unmarked) [Compound 73]
BRD4(BD1) [1]
  IC50: 7.5 µM

## CCCCn1c(=O)[nH]c(=O)c2c1nc(COc1cccc(C(=O)NCc3ccccc3)c1)n2CC [Compound 51]
BRD4(BD1) [1]
  IC50: 30.2 µM

## CCCCn1c(=O)[nH]c(=O)c2c1nc(CSc1nnc(-c3ccccc3)c(-c3ccccc3)n1)n2CC [Compound 46]
BRD4(BD1) [1]
  IC50: 20.1 µM

## CCCCn1c(=O)[nH]c(=O)c2c1nc(COc1ccc3c(=O)c(Oc4ccccc4)coc3c1)n2CC [Compound 47]
BRD4(BD1) [1]
  IC50: 30.1 µM

## CCn1c(COc2nnc(-c3ccccc3)c(-c3ccccc3)n2)nc2c1c(=O)[nH]c(=O)n2Cc1ccc(Cl)cc1 [Compound 71]
BRD4(BD1) [1]
  IC50: 17.8 µM

## CCCCn1c(=O)[nH]c(=O)c2c1nc(COc1ccc(-n3[nH]c(C(=O)O)cc3=O)nn1)n2CC [Compound 43]
BRD4(BD1) [1]
  IC50: 33.4 µM

## CCn1c(CSc2nc3cc(S(=O)(=O)N4CCOCC4)ccc3[nH]2)nc2c1c(=O)[nH]c(=O)n2Cc1ccc(Cl)cc1 [Compound 65]
BRD4(BD1) [1]
  IC50: 32.7 µM

## CCn1c(COc2nc3cc(C(=O)O)ccc3[nH]2)nc2c1c(=O)[nH]c(=O)n2Cc1ccc(Cl)cc1 [Compound 68]
BRD4(BD1) [1]
  IC50: 35.5 µM

## CCCCn1c(=O)[nH]c(=O)c2c1nc(CSc1nc3cc(S(=O)(=O)CC)ccc3o1)n2CC [Compound 37]
BRD4(BD1) [1]
  IC50: 16.6 µM

## CCCCn1c(=O)[nH]c(=O)c2c1nc(CSc1nc3cc(C(=O)O)ccc3o1)n2CC [Compound 36]
BRD4(BD1) [1]
  IC50: 3 µM

## CCn1c(COc2ncc(-c3ccc(C(=O)O)s3)cc2C)nc2c1c(=O)[nH]c(=O)n2Cc1ccc(Cl)cc1 [Compound 72]
BRD4(BD1) [1]
  IC50: 4.4 µM

## CCc1c(C(=O)O)cnn1-c1ccc(OCc2nc3c(c(=O)[nH]c(=O)n3Cc3ccc(Cl)cc3)n2CC)nn1 [Compound 70]
BRD4(BD1) [1]
  IC50: 6.5 µM

## CCCCn1c(=O)[nH]c(=O)c2c1nc(CSc1nc3ccc([NH2+][O-])cc3[nH]1)n2CC [Compound 40]
BRD4(BD1) [1]
  IC50: 33 µM

## CCCCn1c(=O)[nH]c(=O)c2c1nc(CSc1nc3nc(C)c(CCC(=O)O)c(C)n3n1)n2CC [Compound 33]
BRD4(BD1) [1]
  IC50: 8.5 µM

## CCCCn1c(=O)[nH]c(=O)c2c1nc(COc1ccc3c(=O)c(-c4ccccc4)coc3c1)n2CC [Compound 48]
BRD4(BD1) [1]
  IC50: 35.2 µM

## CCCCn1c(=O)[nH]c(=O)c2c1nc(CSc1nc3ccc(C(=O)O)cc3o1)n2CC [Compound 35]
BRD4(BD1) [1]
  IC50: 19.2 µM

## CCCCn1c(=O)[nH]c(=O)c2c1nc(CSc1nc3nc(C)c(CC(=O)O)c(C)n3n1)n2CC [Compound 34]
BRD4(BD1) [1]
  IC50: 44.5 µM

## CCCCn1c(=O)[nH]c(=O)c2c1nc(COc1cn3cc(C(=O)O)ccc3n1)n2CC [Compound 49]
BRD4(BD1) [1]
  IC50: 35.1 µM

## CCn1c(CSc2nc3cc(S(=O)(=O)CC)ccc3o2)nc2c1c(=O)[nH]c(=O)n2Cc1ccc(Cl)cc1 [Compound 59]
BRD4(BD1) [1]
  IC50: 6.9 µM

## CCn1c(COc2cccc(C(=O)NCc3ccccc3)c2)nc2c1c(=O)[nH]c(=O)n2Cc1ccc(Cl)cc1 [Compound 75]
BRD4(BD1) [1]
  IC50: 3.9 µM

## CCn1c(CSc2nc3ccc(C(=O)O)cc3[nH]2)nc2c1c(=O)[nH]c(=O)n2Cc1ccc(Cl)cc1 [Compound 64]
BRD4(BD1) [1]
  IC50: 5.1 µM

## CCn1c(CSc2nc3cc(C(=O)OC)ccc3o2)nc2c1c(=O)[nH]c(=O)n2Cc1ccc(Cl)cc1 [Compound 63]
BRD4(BD1) [1]
  IC50: 8.9 µM

## CCCCn1c(=O)[nH]c(=O)c2c1nc(COc1ccc(Nc3nc4ccccc4c(=O)[nH]3)cc1)n2CC [Compound 52]
BRD4(BD1) [1]
  IC50: 33 µM

## CCCCNS(=O)(=O)c1ccc2nc(SCc3nc4c(c(=O)[nH]c(=O)n4Cc4ccc(Cl)cc4)n3CC)[nH]c2c1 [Compound 67]
BRD4(BD1) [1]
  IC50: 8.9 µM

## CCn1c(CSc2nc3nc(C)c(CCC(=O)O)c(C)n3n2)nc2c1c(=O)[nH]c(=O)n2Cc1ccc(Cl)cc1 [Compound 55]
BRD4(BD1) [1]
  IC50: 14.2 µM

## CCCCc1c(C)nc2nc(SCc3nc4c(c(=O)[nH]c(=O)n4Cc4ccc(Cl)cc4)n3CC)nn2c1C [Compound 27b, 8-(6-Butyl-5,7-dimethyl-[1,2,4]triazolo[1,5-a]pyrimidin-2-ylsulfanylmethyl)-3-(4-chlorobenzyl)-7-ethyl-3,7-dihydro-purine-2,6-dione]
BET bromodomains
  selectivity profile among BET bromodomains: selective towards BRD4(BD1)
BRD4(BD1) [2]; HTRF, Table 1′, TABLE 2, read-out: BRD4(BD1) IC50
  IC50: 20 µM and 20.4 µM
BRD4(BD1) [2]; HTRF, mean ± SD of three experiments, Table 2, read-out: IC50 μM, effect on BRD4(BD1) activity
  IC50: 20.4 µM
BRD4(BD1) [2]; LE = 1.4(−log(IC50)/N), BRD4(BD1)
  LE (Ligand Efficiency): 0.15
BRD4(BD1) [2]; Table 3 selectivity profile, mean ± SD of three experiments, read-out: IC50 (μM) BRD4(BD1)
  IC50: 20.4 ± 3.6 µM
